Structures can show the parent of a compound that is named as a salt. Where two headings read alike, the source gives them in different places.
Experiments:
IDO-1 = IDO-1 (Homo sapiens (Human), UniProt P14902); test: Indoleamine-2,3-dioxygenase 1 inhibitory activity (absorbance at 321 nm); type: biochemical
melanoma B16 [1] = test: Melanoma B16 in mice experiment; type: in vivo, C57BL/6J mice; conditions: intragastric once daily, 10 days; CY-1-26 20 mg/kg, 1-MT 200 mg/kg
Method: The in vivo efficacy of compound was tested with C57BL/6J mice bearing melanoma B16. The intragastric administration was 20 mg/kg, and 1-MT was a positive control (200 mg/kg), which was once daily. The observation and measurement were started on the day of the first administration, and the relevant indicators were recorded. The tumor-bearing mice were sacrificed at the end of the experiment, and the tumor pieces were dissected and weighed.
The tumor-bearing mice were administered by continuous intragastric administration for 10 days. The body weight of the animals in the drug-administered group was slightly slower than that of the negative control group. The animals were in good condition and no obvious side effects were observed.
After 10 days of administration, the animals were euthanized, the subcutaneous tumors were dissected, weighed, and the animals were dissected for gross observation.

TNF-α = conditions: concentration up to 20 μM; cited from earlier work
melanoma B16 [2] = test: Repeated verification, melanoma B16 in mice experiment; type: in vivo, C57BL/6J mice; conditions: intragastric 20 mg/kg once daily, 14 days
Method: The in vivo efficacy of compound was tested in three groups (6 in each group) of C57BL/6J mice bearing melanoma B16. CY-1-26 hydrochloride was intragastrically administered at 20 mg/kg (suspended in 0.5% sodium carboxymethyl cellulose solution), and 1-MT was a positive control (200 mg/kg, suspended in 0.5% sodium carboxymethyl cellulose solution), the blank control was 0.5% sodium carboxymethyl cellulose solution, all once daily dose. On the day of the first dose, the relevant indicators were observed, measured and recorded. At the end of the experiment, the tumor-bearing mice were sacrificed and the tumor pieces were dissected and weighed.
The tumor-bearing mice were administered by continuous intragastric administration for 14 days. The body weight of the animals in the drug-administered group was slightly slower than that of the negative control group. The animals were in good condition and no obvious side effects were observed.
After 14 days of administration, the animals were euthanized, the subcutaneous tumors were dissected, weighed, and the animals were dissected for gross observation.

TDO = TDO (Homo sapiens (Human), UniProt P48775); test: Tryptophan-2,3-dioxygenase inhibitory activity (absorbance at 321 nm); type: biochemical; conditions: read-out: TDO Inhibition rate
Method: Experimental method: TDO can oxidatively cleave the indole ring of tryptophan to form N-formylkynurenine. Referring to the method in the reference (Eddy W. Yue, et al. J. Med. Chem. 2009, 52, 7364-7367), a detection buffer containing 50 nM TDO, 10μM inhibitor, 200μM tryptophan, and the like were sequentially added thereto at room temperature. Due to the formation of N-formylkynurenine, the reaction rate was recorded by the increasing absorbance of the solution at 321 nm. IC50 values were calculated using Prism GraphPad software.

Lewis lung cancer = Lewis lung cancer in mice, in vivo anti-tumor experiment; design: species or system C57BL/6J mice; conditions: intraperitoneal 20 mg/Kg, 11 days
T cells = conditions: cited from earlier work
[3] = 20 nM IDO-1, 2 mM D-tryptophan, read-out: IDO-1 inhibitory activity, IC50
[4] = Table 1, comparison with tryptanthrins 5a, 5b, 5c, 5i, read-out: Comparison of inhibitory activity of the IDO1, IC50
[5] = compound at 10 μM, 50 nM TDO, 200 μM tryptophan

Sequence of TDO (P48775 whole entry): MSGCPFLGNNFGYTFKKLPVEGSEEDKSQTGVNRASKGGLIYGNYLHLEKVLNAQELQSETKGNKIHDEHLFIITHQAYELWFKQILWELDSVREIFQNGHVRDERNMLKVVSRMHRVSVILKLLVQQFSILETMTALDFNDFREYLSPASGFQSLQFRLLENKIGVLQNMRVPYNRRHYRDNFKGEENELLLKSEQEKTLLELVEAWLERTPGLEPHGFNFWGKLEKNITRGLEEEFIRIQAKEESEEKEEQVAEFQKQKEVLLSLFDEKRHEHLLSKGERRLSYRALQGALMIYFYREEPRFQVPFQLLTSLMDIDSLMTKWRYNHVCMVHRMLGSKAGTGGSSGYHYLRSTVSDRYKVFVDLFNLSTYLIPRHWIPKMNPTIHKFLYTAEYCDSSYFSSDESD
Sequence of IDO-1 (P14902 whole entry): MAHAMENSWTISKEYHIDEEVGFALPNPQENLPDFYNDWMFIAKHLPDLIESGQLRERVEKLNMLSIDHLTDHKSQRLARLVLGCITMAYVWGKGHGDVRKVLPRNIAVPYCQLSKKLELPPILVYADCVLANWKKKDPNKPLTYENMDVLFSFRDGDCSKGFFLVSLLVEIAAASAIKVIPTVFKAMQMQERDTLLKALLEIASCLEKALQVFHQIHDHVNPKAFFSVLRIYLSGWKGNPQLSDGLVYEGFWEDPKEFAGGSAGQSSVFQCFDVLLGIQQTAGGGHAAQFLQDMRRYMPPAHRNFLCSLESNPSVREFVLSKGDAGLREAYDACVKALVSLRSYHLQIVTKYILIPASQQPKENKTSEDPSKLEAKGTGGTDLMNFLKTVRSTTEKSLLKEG

SMILES | IC50 (IDO-1; [3]) [µM] | other results
O=C1c2ccccc2-n2c1nc1ncccc1c2=O [CY-1-1, pyrido[2′,3′:4,5]pyrimido[1,2-α]indole-5,11-dione] | 0.11 to 1 | IC50 (IDO-1; [4]): 0.1 to 1 µM
Cn1cc(CC(N)C(=O)O)c2ccccc21 (centres unmarked) [Compound 1-MT, reference compound] |  | tumor inhibition rate (tumor weight) (melanoma B16 [1]): 26.3%
O=C1c2cc([N+](=O)[O-])ccc2-n2c1nc1cccnc1c2=O [8-nitro-1-aza-tryptanthrin] |  | activity in production of TNF-α (TNF-α): did not exhibit activity
CCON=C1c2cc([N+](=O)[O-])ccc2-n2c1nc1ncccc1c2=O [CY-1-26 hydrochloride] |  | tumor inhibition rate (tumor weight) (melanoma B16 [2]): 46.0%
O=c1c2cccnc2nc2n1-c1ccccc1C2=NO [CY-1-12, 11-(hydroxyimino)pyrido[2′,3′:4,5]pyrimido[1,2-α]indol-5(11H)-one] | 1.1 to 10 | 
O=C1c2cc(OC(F)(F)F)ccc2-n2c1nc1ncccc1c2=O [CY-1-3, 9-(trifluoromethoxy)pyrido[2′,3′:4,5]pyrimido[1,2-c]indole-5,11-dione] |  | inhibition at 10 µM (TDO; [5]): 16%
O=C1c2cc(F)ccc2-n2c1nc1ncccc1c2=O [CY-1-2, 9-fluoropyrido[2′,3′:4,5]pyrimido[1,2-c]indole-5,11-dione] |  | inhibition at 10 µM (TDO; [5]): 44%
O=C1c2cc(Cl)ccc2-n2c1nc1ncccc1c2=O [CY-1-5, 9-chloropyrido[2′,3′:4,5]pyrimido[1,2-c]indole-5,11-dione] |  | inhibition at 10 µM (TDO; [5]): 35%
NC(=S)NN=C1c2cc([N+](=O)[O-])ccc2-n2c1nc1ncccc1c2=O [CY-1-29, 2-(9-nitro-5-oxopyrido[2′,3′:4,5]pyrimido[1,2-c]indol-11(5H)-ylidene)hydrazine-1-carbothioamide] |  | inhibition at 10 µM (TDO; [5]): 93%
O=C1c2ccccc2-n2c1nc1cnccc1c2=O [CY-1-8, pyrido[3′,4′:4,5]pyrimido[1,2-c]indole-5,11-dione] | 0.11 to 1 | IC50 (IDO-1; [4]): 0.1 to 1 µM
O=C1c2cc(F)ccc2-n2c1nc1cnccc1c2=O [CY-1-11, 9-fluoropyrido[3′,4′:4,5]pyrimido[1,2-α]indole-5,11-dione] | 0.11 to 1 | IC50 (IDO-1; [4]): 0.1 to 1 µM
COc1ccc2c(c1)C(=O)c1nc3cnccc3c(=O)n1-2 [CY-1-9, 9-methoxypyrido[3′,4′:4,5]pyrimido[1,2-c]indole-5,11-dione] | 1.1 to 10 | 
O=C1c2cc(Cl)ccc2-n2c1nc1cnccc1c2=O [CY-1-10, 9-chloropyrido[3′,4′: 4,5]pyrimido[1,2-α]indole-5,11-dione] | 0.11 to 1 | inhibition at 10 µM (TDO): 8%
N=C(N)NN=C1c2cc([N+](=O)[O-])ccc2-n2c1nc1ncccc1c2=O [CY-1-23, 2-(9-nitro-5-oxopyrido[2′,3′:4,5]pyrimido[1,2-c]indol-11(5H)-ylidene)hydrazine-1-carboximidamide] |  | inhibition at 10 µM (TDO): 86%
COc1ccc2c(c1)C(=O)c1nc3ncccc3c(=O)n1-2 [CY-1-6, 9-methoxypyrido[2′,3′:4,5]pyrimido[1,2-c]indole-5,11-dione] | 0.11 to 1 | 
O=c1c2cccnc2nc2n1-c1ccc([N+](=O)[O-])cc1C2=NOS(=O)(=O)O [CY-1-24, (((9-nitro-5-oxopyrido[2′,3′:4,5]pyrimido[1,2-α]indol-11(5H)-ylidene)amino)oxy) sulfonic acid] | 0.11 to 1 | 
O=P1(N(CCCl)CCCl)NCCCO1 (centres unmarked) [cyclophosphamide, reference compound] |  | tumor inhibition rate (tumor weight) (Lewis lung cancer): 29.9%
CN(C)CCON=C1c2cc([N+](=O)[O-])ccc2-n2c1nc1ncccc1c2=O [CY-1-17, 11-((2-(dimethylamino)ethoxy)imino)-9-nitropyrido[2′,3′:4,5]pyrimido[1,2-α]indol-5(11H)-one] |  | inhibition at 10 µM (TDO; [5]): 64%; tumor inhibition rate (tumor weight) (Lewis lung cancer): 51.8%
O=C1c2cc(F)ccc2-n2c1nc1ccccc1c2=O |  | proliferation of T cells (T cells): can promote the proliferation of T cells
O=C1c2cc([N+](=O)[O-])ccc2-n2c1nc1ncccc1c2=O [CY-1-4, 9-nitropyridine[2′,3′:4,5]pyrimido[1,2-c]indole-5,11-dione] |  | inhibition at 10 µM (TDO): 97%
Cc1ccc2c(c1)C(=O)c1nc3ncccc3c(=O)n1-2 [CY-1-7, 9-methylpyrido[2′,3′:4,5]pyrimido[1,2-c]indole-5,11-dione] | 0.11 to 1 | IC50 (IDO-1; [4]): 0.1 to 1 µM

Further lines, with some results ahead:

IC50 (IDO-1; [3]) [µM] | SMILES | other results
0.11 to 1 | CN(C)CCON=C1c2cc(F)ccc2-n2c1nc1ncccc1c2=O [CY-1-19, 11-((2-(dimethylamino)ethoxy)imino)-9-fluoropyrido[2′,3′:4,5]pyrimido[1,2-α]indol-5(11H)-one] | 
1.1 to 10 | CCON=C1c2cc([N+](=O)[O-])ccc2-n2c1nc1ncccc1c2=O [CY-1-26, 11-(ethoxyimino)-9-nitropyrido[2′,3′:4,5]pyrimido[1,2-α]indol-5(11H)-one] | tumor inhibition rate (tumor weight) (melanoma B16 [1]): 33.0%
0.11 to 1 | CON=C1c2cc([N+](=O)[O-])ccc2-n2c1nc1ncccc1c2=O [CY-1-25, 11-(methoxyimino)-9-nitropyrido[2′,3′: 4,5]pyrimido[1,2-α]indol-5 (11H)-one] | 
0.11 to 1 | O=c1c2cccnc2nc2n1-c1ccc([N+](=O)[O-])cc1C2=NOCCO [CY-1-21, 11-((2-hydroxyethoxy)imino)-9-nitropyrido[2′,3′:4,5]pyrimido[1,2-α]indol-5(11H)-one] | 
1.1 to 10 | COc1ccc2c(c1)C(=NNC(=S)N(C)C)c1nc3ncccc3c(=O)n1-2 [CY-1-30, 2-(9-methoxy-5-oxopyrido[2′,3′:4,5]pyrimido[1,2-α]indol-11(5H)-ylidene)-N,N-di methyl-hydrazine-1-carbothioamide] | 
1.1 to 10 | CN(C)CCCON=C1c2cc(Cl)ccc2-n2c1nc1ncccc1c2=O [CY-1-20, 9-chloro-11-((3-(dimethylamino)propoxy)imino)pyrido[2′,3′:4,5]pyrimido[1,2-α]indol-5(11H)-one] | 
1.1 to 10 | Cc1ccc2c(c1)C(=NO)c1nc3ncccc3c(=O)n1-2 [CY-1-14, 11-(hydroxyimino)-9-methylpyrido[2′,3′: 4,5]pyrimido[1,2-α]indole-5 (11H)-one] | 
0.11 to 1 | CN(C)CCON=C1c2cc(Cl)ccc2-n2c1nc1ncccc1c2=O [CY-1-18, 9-chloro-11-((2-(dimethylamino)ethoxy)imino)pyrido[2′,3′:4,5]pyrimido[1,2-α]indol-5(11H)-one] | 
1.1 to 10 | C=CCON=C1c2cc([N+](=O)[O-])ccc2-n2c1nc1ncccc1c2=O [CY-1-27, 11-((allyloxy)imino)-9-nitropyrido[2′,3′:4,5]pyrimido[1,2-α]indol-5(11H)-one] | 
0.11 to 1 | CN(C)CCON=C1c2ccccc2-n2c1nc1ncccc1c2=O [CY-1-16, 11-((2-(dimethylamino)ethoxy)imino)pyrido[2′,3′:4,5]pyrimido[1,2-α]indole-5(11H)-one] | 
1.1 to 10 | COc1ccc2c(c1)C(=NO)c1nc3ncccc3c(=O)n1-2 [CY-1-15, 11-(hydroxyimino)-9-methoxypyrido[2′,3′:4,5]pyrimido[1,2-α]indole-5(11H)-one] | 
0.11 to 1 | O=c1c2cccnc2nc2n1-c1ccc(Cl)cc1C2=NO [CY-1-13, 9-chloro-11-(hydroxyimino)pyrido[2′,3′:4,5]pyrimido[1,2-α]indole-5(11H)-one] | inhibition at 10 µM (TDO; [5]): 6%
